Test results taken from PMC4823954, “From fighting depression to conquering tumors: a novel tricyclic thiazepine compound as a tubulin polymerization inhibitor” (Cell Death & Disease, 2016).

Assays:
Test in all cases: KINOMEscan
Format in all cases: binding
Conditions in all cases: read-out: % Ctrl
BMX = target: T1, BMX (Homo sapiens, UniProt P51813)
T1 construct: purchased DiscoveRx KINOMEscan
Procedure: (§1) The binding assay for 442 non-mutant kinases was performed using KINOMEscan (DiscoveRx Corporation, Fremont, CA, USA) as reported previously.[58], [59] TBPT was screened at concentrations of 5 and 10 μM to identify the affected kinases. KINOMEscan is based on a competition reaction that quantitatively measures the ability of a test compound to compete with an active site-directed ligand for binding to the kinase active site. […] After the assay plates were incubated with shaking for 1 h, the liganded beads were washed with washing buffer (1 × PBS and 0.05% Tween 20). Then, the beads were re-suspended in elution buffer (1 × PBS, 0.05% Tween 20, and 0.5 μM ligand) and incubated with shaking for 30 min. The kinase concentration in the eluates was measured via qPCR. The results are represented as ‘%Ctrl', which was calculated using the following formula: (test compound signal–positive control signal)/(DMSO signal–positive control signal) × 100%. A lower % Ctrl indicates stronger binding to the kinase active site.

WEE2 = target: T2, WEE2 (Homo sapiens, UniProt P0C1S8)
T2 construct: purchased DiscoveRx KINOMEscan
Procedure: as §1

TIE2 = target: T3, TIE2 (Homo sapiens, UniProt Q02763)
T3 construct: purchased DiscoveRx KINOMEscan
Procedure: as §1

PIP5K1C = target: T4, PIP5K1C (Homo sapiens, UniProt O60331)
T4 construct: purchased DiscoveRx KINOMEscan
Procedure: as §1

PAK2 = target: T5, PAK2 (Homo sapiens, UniProt Q13177)
T5 construct: purchased DiscoveRx KINOMEscan
Procedure: as §1

CIT = target: T6, CIT (Homo sapiens, UniProt O14578)
T6 construct: purchased DiscoveRx KINOMEscan
Procedure: as §1

MST1R = target: T7, MST1R (Homo sapiens, UniProt Q04912)
T7 construct: purchased DiscoveRx KINOMEscan
Procedure: as §1

DAPK3 = target: T8, DAPK3 (Homo sapiens, UniProt O43293)
T8 construct: purchased DiscoveRx KINOMEscan
Procedure: as §1

ROS1 = target: T9, ROS1 (Homo sapiens, UniProt P08922)
T9 construct: purchased DiscoveRx KINOMEscan
Procedure: as §1

ACVR1B = target: T10, ACVR1B (Homo sapiens, UniProt P36896)
T10 construct: purchased DiscoveRx KINOMEscan
Procedure: as §1

PKAC-beta = target: T11, PKAC-beta (Homo sapiens, UniProt P22694)
T11 construct: purchased DiscoveRx KINOMEscan
Procedure: as §1

PRKCH = target: T12, PRKCH (Homo sapiens, UniProt P24723)
T12 construct: purchased DiscoveRx KINOMEscan
Procedure: as §1

MEK1 = target: T13, MEK1 (Homo sapiens, UniProt Q02750)
T13 construct: purchased DiscoveRx KINOMEscan
Procedure: as §1

CDK3 = target: T14, CDK3 (Homo sapiens, UniProt Q00526)
T14 construct: purchased DiscoveRx KINOMEscan
Procedure: as §1

CAMK1G = target: T15, CAMK1G (Homo sapiens, UniProt Q96NX5)
T15 construct: purchased DiscoveRx KINOMEscan
Procedure: as §1

EPHA4 = target: T16, EPHA4 (Homo sapiens, UniProt P54764)
T16 construct: purchased DiscoveRx KINOMEscan
Procedure: as §1

NDR2 = target: T17, NDR2 (Homo sapiens, UniProt Q9Y2H1)
T17 construct: purchased DiscoveRx KINOMEscan
Procedure: as §1

PRKCQ = target: T18, PRKCQ (Homo sapiens, UniProt Q04759)
T18 construct: purchased DiscoveRx KINOMEscan
Procedure: as §1

PRKX = target: T19, PRKX (Homo sapiens, UniProt P51817)
T19 construct: purchased DiscoveRx KINOMEscan
Procedure: as §1

ACVRL1 = target: T20, ACVRL1 (Homo sapiens, UniProt P37023)
T20 construct: purchased DiscoveRx KINOMEscan
Procedure: as §1

NEK9 = target: T21, NEK9 (Homo sapiens, UniProt Q8TD19)
T21 construct: purchased DiscoveRx KINOMEscan
Procedure: as §1

MEK5 = target: T22, MEK5 (Homo sapiens, UniProt Q13163)
T22 construct: purchased DiscoveRx KINOMEscan
Procedure: as §1

NDR1 = target: T23, NDR1 (Homo sapiens, UniProt Q15208)
T23 construct: purchased DiscoveRx KINOMEscan
Procedure: as §1

PAK6 = target: T24, PAK6 (Homo sapiens, UniProt Q9NQU5)
T24 construct: purchased DiscoveRx KINOMEscan
Procedure: as §1

NEK2 = target: T25, NEK2 (Homo sapiens, UniProt P51955)
T25 construct: purchased DiscoveRx KINOMEscan
Procedure: as §1

TAOK1 = target: T26, TAOK1 (Homo sapiens, UniProt Q7L7X3)
T26 construct: purchased DiscoveRx KINOMEscan
Procedure: as §1

GRK1 = target: T27, GRK1 (Homo sapiens, UniProt Q15835)
T27 construct: purchased DiscoveRx KINOMEscan
Procedure: as §1

PRKD3 = target: T28, PRKD3 (Homo sapiens, UniProt O94806)
T28 construct: purchased DiscoveRx KINOMEscan
Procedure: as §1

PRKR = target: T29, PRKR (Homo sapiens, UniProt P19525)
T29 construct: purchased DiscoveRx KINOMEscan
Procedure: as §1

MAP3K3 = target: T30, MAP3K3 (Homo sapiens, UniProt Q99759)
T30 construct: purchased DiscoveRx KINOMEscan
Procedure: as §1

PCTK2 = target: T31, PCTK2 (Homo sapiens, UniProt Q00537)
T31 construct: purchased DiscoveRx KINOMEscan
Procedure: as §1

T19 sequence (P51817 whole entry): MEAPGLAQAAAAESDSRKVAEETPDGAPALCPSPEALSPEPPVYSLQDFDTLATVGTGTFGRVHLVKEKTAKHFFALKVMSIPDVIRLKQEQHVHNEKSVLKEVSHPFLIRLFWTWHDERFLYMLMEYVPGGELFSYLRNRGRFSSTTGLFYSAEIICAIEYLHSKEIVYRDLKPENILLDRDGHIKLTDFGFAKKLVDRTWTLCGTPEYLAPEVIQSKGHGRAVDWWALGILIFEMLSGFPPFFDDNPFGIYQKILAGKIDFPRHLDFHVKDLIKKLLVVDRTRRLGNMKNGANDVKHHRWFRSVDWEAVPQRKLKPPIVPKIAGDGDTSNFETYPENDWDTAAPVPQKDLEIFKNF
T20 sequence (P37023 22-503): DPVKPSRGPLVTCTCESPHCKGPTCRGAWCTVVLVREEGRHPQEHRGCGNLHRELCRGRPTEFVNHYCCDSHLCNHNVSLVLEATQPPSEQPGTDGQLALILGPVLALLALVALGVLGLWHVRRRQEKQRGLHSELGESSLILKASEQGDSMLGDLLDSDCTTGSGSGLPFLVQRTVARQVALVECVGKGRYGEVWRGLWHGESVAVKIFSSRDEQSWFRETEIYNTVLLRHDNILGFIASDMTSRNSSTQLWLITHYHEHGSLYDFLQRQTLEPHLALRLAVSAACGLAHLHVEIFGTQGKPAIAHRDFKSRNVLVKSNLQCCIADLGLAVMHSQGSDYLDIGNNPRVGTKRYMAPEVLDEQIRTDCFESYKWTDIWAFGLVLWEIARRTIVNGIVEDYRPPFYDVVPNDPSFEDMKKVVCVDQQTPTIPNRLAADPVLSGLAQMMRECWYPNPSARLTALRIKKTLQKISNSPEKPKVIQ
T21 sequence (Q8TD19 whole entry): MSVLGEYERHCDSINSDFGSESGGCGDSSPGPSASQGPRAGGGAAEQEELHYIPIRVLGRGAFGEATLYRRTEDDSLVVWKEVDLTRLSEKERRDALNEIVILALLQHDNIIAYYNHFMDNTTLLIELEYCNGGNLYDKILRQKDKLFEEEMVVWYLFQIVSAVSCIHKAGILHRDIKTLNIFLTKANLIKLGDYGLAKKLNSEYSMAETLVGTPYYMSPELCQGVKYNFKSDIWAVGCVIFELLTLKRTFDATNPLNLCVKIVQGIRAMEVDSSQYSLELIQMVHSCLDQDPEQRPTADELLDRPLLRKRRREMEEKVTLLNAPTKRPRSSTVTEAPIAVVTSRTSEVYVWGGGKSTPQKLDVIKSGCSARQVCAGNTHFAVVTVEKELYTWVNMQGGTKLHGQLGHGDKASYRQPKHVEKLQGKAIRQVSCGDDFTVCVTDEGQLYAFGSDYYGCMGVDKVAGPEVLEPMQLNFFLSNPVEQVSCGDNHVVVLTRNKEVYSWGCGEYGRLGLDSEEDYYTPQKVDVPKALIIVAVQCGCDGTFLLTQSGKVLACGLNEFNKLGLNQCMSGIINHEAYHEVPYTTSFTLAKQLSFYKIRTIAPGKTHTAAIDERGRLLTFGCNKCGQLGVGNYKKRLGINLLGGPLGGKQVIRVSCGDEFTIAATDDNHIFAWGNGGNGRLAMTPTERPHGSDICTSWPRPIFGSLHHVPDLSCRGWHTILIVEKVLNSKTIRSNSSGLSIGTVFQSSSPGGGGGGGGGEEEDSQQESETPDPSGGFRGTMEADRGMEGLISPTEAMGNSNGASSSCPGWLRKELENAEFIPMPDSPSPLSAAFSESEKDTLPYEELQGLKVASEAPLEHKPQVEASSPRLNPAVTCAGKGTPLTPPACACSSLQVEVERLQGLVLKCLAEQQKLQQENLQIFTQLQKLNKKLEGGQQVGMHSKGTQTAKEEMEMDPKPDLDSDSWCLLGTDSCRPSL
T15 sequence (Q96NX5 whole entry): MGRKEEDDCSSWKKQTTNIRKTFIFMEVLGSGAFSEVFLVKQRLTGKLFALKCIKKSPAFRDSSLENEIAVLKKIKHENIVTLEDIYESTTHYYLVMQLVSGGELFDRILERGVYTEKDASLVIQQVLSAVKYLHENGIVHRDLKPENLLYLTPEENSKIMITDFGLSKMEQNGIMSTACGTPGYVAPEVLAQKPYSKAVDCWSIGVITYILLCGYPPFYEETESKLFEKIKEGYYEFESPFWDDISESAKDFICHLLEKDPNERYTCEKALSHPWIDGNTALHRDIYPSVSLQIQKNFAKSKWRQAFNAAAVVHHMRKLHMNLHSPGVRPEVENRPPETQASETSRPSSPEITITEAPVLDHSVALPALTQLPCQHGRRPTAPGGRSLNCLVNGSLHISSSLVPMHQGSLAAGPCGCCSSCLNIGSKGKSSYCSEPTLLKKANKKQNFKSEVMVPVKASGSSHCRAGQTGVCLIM
T8 sequence (O43293 whole entry): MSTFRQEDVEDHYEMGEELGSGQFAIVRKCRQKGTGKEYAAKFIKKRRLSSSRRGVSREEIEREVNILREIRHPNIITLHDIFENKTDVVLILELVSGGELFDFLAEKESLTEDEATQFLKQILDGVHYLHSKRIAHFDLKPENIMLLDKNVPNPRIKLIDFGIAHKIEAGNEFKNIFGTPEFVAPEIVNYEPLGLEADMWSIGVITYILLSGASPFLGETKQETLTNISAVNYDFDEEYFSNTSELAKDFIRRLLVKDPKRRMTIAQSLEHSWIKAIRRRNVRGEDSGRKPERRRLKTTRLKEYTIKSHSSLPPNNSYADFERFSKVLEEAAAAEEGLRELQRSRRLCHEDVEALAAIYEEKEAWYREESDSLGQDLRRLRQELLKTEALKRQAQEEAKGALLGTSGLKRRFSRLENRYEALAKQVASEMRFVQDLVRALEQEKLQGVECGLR
T5 sequence (Q13177 whole entry): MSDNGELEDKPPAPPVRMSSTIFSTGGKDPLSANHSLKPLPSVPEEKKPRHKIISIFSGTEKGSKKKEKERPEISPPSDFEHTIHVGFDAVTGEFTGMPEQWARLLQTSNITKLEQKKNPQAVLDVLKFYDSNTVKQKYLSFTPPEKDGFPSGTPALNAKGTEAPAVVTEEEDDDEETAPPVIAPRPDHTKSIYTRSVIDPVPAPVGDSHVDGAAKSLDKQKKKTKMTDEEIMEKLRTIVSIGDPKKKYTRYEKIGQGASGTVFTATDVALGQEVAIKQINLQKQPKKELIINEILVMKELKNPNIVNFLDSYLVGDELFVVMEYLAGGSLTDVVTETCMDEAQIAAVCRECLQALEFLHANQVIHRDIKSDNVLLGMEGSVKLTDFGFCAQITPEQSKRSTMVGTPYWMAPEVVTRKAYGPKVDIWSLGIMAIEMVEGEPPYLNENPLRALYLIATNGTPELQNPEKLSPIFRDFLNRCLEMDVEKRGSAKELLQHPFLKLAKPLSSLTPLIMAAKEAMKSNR
T18 sequence (Q04759 whole entry): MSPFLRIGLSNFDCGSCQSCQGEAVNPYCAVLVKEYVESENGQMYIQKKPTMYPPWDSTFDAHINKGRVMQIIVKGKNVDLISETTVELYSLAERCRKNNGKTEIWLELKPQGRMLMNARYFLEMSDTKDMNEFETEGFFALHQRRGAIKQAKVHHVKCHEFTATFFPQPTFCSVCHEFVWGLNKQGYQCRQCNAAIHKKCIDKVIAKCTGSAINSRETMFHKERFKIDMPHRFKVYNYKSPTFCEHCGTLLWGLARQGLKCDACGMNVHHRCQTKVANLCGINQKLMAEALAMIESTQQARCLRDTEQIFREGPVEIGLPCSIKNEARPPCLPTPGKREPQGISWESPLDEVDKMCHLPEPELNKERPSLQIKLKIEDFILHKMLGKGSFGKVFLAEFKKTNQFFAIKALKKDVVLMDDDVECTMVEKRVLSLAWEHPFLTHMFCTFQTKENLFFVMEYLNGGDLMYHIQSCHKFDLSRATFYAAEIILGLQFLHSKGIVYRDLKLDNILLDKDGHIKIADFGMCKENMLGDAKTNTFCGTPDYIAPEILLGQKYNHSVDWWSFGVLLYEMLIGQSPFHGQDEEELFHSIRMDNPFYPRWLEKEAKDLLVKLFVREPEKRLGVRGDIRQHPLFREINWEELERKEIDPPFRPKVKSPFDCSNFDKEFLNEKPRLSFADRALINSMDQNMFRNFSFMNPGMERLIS
T31 sequence (Q00537 whole entry): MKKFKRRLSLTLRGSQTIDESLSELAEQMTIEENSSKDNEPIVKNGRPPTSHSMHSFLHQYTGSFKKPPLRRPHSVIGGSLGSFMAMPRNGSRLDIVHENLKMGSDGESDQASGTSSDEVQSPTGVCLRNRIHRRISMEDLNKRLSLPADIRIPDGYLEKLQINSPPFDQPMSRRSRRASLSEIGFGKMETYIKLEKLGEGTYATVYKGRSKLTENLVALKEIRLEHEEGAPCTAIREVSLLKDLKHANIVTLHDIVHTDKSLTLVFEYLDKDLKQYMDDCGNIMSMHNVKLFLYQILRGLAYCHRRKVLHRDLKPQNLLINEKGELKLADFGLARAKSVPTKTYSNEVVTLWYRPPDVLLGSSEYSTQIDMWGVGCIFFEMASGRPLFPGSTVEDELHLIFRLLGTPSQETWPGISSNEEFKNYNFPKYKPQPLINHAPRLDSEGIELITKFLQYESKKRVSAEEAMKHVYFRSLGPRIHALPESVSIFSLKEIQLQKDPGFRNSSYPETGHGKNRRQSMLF
T17 sequence (Q9Y2H1 whole entry): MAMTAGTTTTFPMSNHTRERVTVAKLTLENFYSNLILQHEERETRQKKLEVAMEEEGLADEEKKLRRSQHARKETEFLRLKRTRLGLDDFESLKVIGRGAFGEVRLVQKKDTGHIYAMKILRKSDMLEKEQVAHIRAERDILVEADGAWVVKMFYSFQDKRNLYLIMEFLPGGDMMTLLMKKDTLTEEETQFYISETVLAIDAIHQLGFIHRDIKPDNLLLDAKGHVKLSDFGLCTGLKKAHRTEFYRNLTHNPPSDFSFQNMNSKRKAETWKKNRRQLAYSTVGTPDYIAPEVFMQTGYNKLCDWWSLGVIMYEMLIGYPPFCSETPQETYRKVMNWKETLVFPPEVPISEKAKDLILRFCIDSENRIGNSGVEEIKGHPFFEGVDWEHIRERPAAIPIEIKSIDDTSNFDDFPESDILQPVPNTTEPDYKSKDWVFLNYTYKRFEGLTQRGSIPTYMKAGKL

## Cc1ccc(C2=Nc3cccnc3S(=O)(=O)c3ccccc32)cc1 [TBPT, 6-(p-tolyl)benzo[f] pyrido[2,3-b][1,4] thiazepine 11,11-dioxide]
BMX; 5 μM
  remaining binding at 5 µM: 92%
BMX; 10 μM
  remaining binding at 10 µM: 93%
WEE2; 5 μM
  remaining binding at 5 µM: 100%
WEE2; 10 μM
  remaining binding at 10 µM: 100%
TIE2; 5 μM
  remaining binding at 5 µM: 100%
TIE2; 10 μM
  remaining binding at 10 µM: 91%
PIP5K1C; 5 μM
  remaining binding at 5 µM: 100%
PIP5K1C; 10 μM
  remaining binding at 10 µM: 94%
PAK2; 5 μM
  remaining binding at 5 µM: 100%
PAK2; 10 μM
  remaining binding at 10 µM: 100%
CIT; 5 μM
  remaining binding at 5 µM: 98%
CIT; 10 μM
  remaining binding at 10 µM: 97%
MST1R; 5 μM
  remaining binding at 5 µM: 80%
MST1R; 10 μM
  remaining binding at 10 µM: 100%
DAPK3; 5 μM
  remaining binding at 5 µM: 100%
DAPK3; 10 μM
  remaining binding at 10 µM: 100%
ROS1; 5 μM
  remaining binding at 5 µM: 100%
ROS1; 10 μM
  remaining binding at 10 µM: 100%
ACVR1B; 5 μM
  remaining binding at 5 µM: 98%
ACVR1B; 10 μM
  remaining binding at 10 µM: 91%
PKAC-beta; 5 μM
  remaining binding at 5 µM: 96%
PKAC-beta; 10 μM
  remaining binding at 10 µM: 100%
PRKCH; 5 μM
  remaining binding at 5 µM: 82%
PRKCH; 10 μM
  remaining binding at 10 µM: 100%
MEK1; 5 μM
  remaining binding at 5 µM: 100%
MEK1; 10 μM
  remaining binding at 10 µM: 92%
CDK3; 5 μM
  remaining binding at 5 µM: 100%
CDK3; 10 μM
  remaining binding at 10 µM: 100%
CAMK1G; 5 μM
  remaining binding at 5 µM: 100%
CAMK1G; 10 μM
  remaining binding at 10 µM: 100%
EPHA4; 5 μM
  remaining binding at 5 µM: 100%
EPHA4; 10 μM
  remaining binding at 10 µM: 96%
NDR2; 5 μM
  remaining binding at 5 µM: 100%
NDR2; 10 μM
  remaining binding at 10 µM: 100%
PRKCQ; 5 μM
  remaining binding at 5 µM: 100%
PRKCQ; 10 μM
  remaining binding at 10 µM: 100%
PRKX; 5 μM
  remaining binding at 5 µM: 92%
PRKX; 10 μM
  remaining binding at 10 µM: 70%
ACVRL1; 5 μM
  remaining binding at 5 µM: 100%
ACVRL1; 10 μM
  remaining binding at 10 µM: 71%
NEK9; 5 μM
  remaining binding at 5 µM: 100%
NEK9; 10 μM
  remaining binding at 10 µM: 88%
MEK5; 5 μM
  remaining binding at 5 µM: 100%
MEK5; 10 μM
  remaining binding at 10 µM: 95%
NDR1; 5 μM
  remaining binding at 5 µM: 100%
NDR1; 10 μM
  remaining binding at 10 µM: 87%
PAK6; 5 μM
  remaining binding at 5 µM: 100%
PAK6; 10 μM
  remaining binding at 10 µM: 100%
NEK2; 5 μM
  remaining binding at 5 µM: 92%
NEK2; 10 μM
  remaining binding at 10 µM: 81%
TAOK1; 5 μM
  remaining binding at 5 µM: 100%
TAOK1; 10 μM
  remaining binding at 10 µM: 100%
GRK1; 5 μM
  remaining binding at 5 µM: 100%
GRK1; 10 μM
  remaining binding at 10 µM: 100%
PRKD3; 5 μM
  remaining binding at 5 µM: 100%
PRKD3; 10 μM
  remaining binding at 10 µM: 78%
PRKR; 5 μM
  remaining binding at 5 µM: 97%
PRKR; 10 μM
  remaining binding at 10 µM: 90%
MAP3K3; 5 μM
  remaining binding at 5 µM: 79%
MAP3K3; 10 μM
  remaining binding at 10 µM: 92%
PCTK2; 5 μM
  remaining binding at 5 µM: 100%
PCTK2; 10 μM
  remaining binding at 10 µM: 89%
